In patent US20250367171A1, “THERAPEUTIC OR PROPHYLACTIC AGENT FOR PERIPHERAL NEUROPATHIES” (Toray Industries, Inc., priority 2017, published 2025):

Legend:
Assay type in all cases: in vivo
[1] = test system: rat cisplatin-induced peripheral neuropathy model; assay: Mechanical allodynia (von Frey test) in rat cisplatin-induced peripheral neuropathy model; conditions: 10 mg/kg oral single dose, day 34, 2 hours after administration, vs vehicle group
Description: Cisplatin (Wako Pure Chemical Industries, Ltd.) was intraperitoneally administered to SD rats (6 weeks old, male; CHARLES RIVER LABORATORIES JAPAN, INC.) intermittently twice a week (1 or 2 mg/kg) for 5 weeks, thereby preparing a cisplatin-induced peripheral neuropathy model. Cisplatin was dissolved in physiological saline to a concentration of 10 mg/mL and then administered. As a control (pseudo-induction), physiological saline was administered. The initial day of administration was designated as day 1 after induction of pathological conditions.
On day 34 after induction of pathological conditions, a solution containing compound 1 (10 mg/kg) or a solvent thereof (water for injection) was orally administered to rats. Groups were composed of 3 groups: a pseudo-induction and solvent administration group (sham group); a pathological condition-induced and solvent administration group (vehicle group); and a pathological condition-induced and compound 1 (10 mg/kg) administration group (compound 1 (10 mg/kg) group).
Beneficial effects on mechanical allodynia were evaluated in a manner similar to Example 5 and this evaluation was performed before and 2 hours after administration of compound 1 on day 34 after induction of pathological conditions.

[2] = test system: rat experimental autoimmune neuritis (EAN) model; assay: Rat experimental autoimmune neuritis (EAN) model: clinical scores, body weight, histopathology
Description: A method of preparing EAN model rats is as described below. Peripheral myelin protein P2 peptide 57-81 (synthesized at Toray Research Center, Inc.) was dissolved in physiological saline (Otsuka Pharmaceutical Factory, Inc.) to prepare a 2 mg/mL solution. The solution and 2 mg/mL complete Freund's adjuvant (Difco Laboratories) containing killed Mycobacterium tuberculosis H37Ra were mixed in equal amounts, thereby preparing an emulsion which was a peptide solution for administration. The peptide solution for administration (200 μL) was administered subcutaneously to the base of the tail of each Lewis rat (6 to 7 weeks old, male; CHARLES RIVER LABORATORIES JAPAN, INC.) under anesthesia, thereby preparing the EAN model. The day of administration of the peptide was designated as day 0 after induction of pathological conditions.
Clinical scores were evaluated as follows: 0=no symptom, 1=limp tail or hind limb weakness, 2=limp tail and hind limb weakness, 3=partial hind limb paralysis, 4=complete hind limb paralysis, 5=moribund state or death. Weighing was also performed.
Compound 1 (20 mg/kg) was dissolved in distilled water (Otsuka Pharmaceutical Factory, Inc.) and then the solution was orally administered to the EAN model twice a day (administration was started on day 10 after induction of pathological conditions). As a control, distilled water was orally administered to the EAN model. Groups were composed of 2 groups: a solvent administration group (vehicle group); and a compound 1 administration group.
For histopathological evaluation, on day 17 after induction of pathological conditions, the sciatic nerve and the tibial nerve were isolated, and then immersed in a 10% formalin neutral buffer solution. Specimens were sliced and then subjected to hematoxylin-eogin staining, Kliiver-Barrera staining (double staining of Luxol Fast Blue staining and Nissl staining) and immunostaining (IbaI, CD3, NFP and MBP). Specimens were observed under an optical microscope, and then the presence or the absence of T cell and macrophage infiltration, and degeneration of myelin sheaths and axons were evaluated.

[3] = test system: rat experimental autoimmune neuritis (EAN) model; assay: Mechanical allodynia (von Frey test) in rat EAN model; conditions: day 14, 3 hours after administration, vs vehicle group
Description: EAN model rats were prepared in a manner similar to Example 9. Further, a pseudo-induction animal was prepared by administering physiological saline (Otsuka Pharmaceutical Factory, Inc.) instead of a peptide solution for administration. The day of administration of the peptide solution for administration or physiological saline was designated as day 0 after induction of pathological conditions.
On day 14 after induction of pathological conditions, compound 1 (5 or 10 mg/kg) or a solvent thereof (water for injection) was orally administered to rats. Groups were composed of 4 groups: a pseudo-induction and solvent administration group (sham group); a pathological condition-induced and solvent administration group (vehicle group); a pathological condition-induced and compound 1 (5 mg/kg) administration group (compound 1 (5 mg/kg) group); and a pathological condition-induced and compound 1 (10 mg/kg) administration group (compound 1 (10 mg/kg) administration group).
Beneficial effects on mechanical allodynia were evaluated in a manner similar to Example 5, and this evaluation was performed at 3 hours after administration of compound 1 on day 14 after induction of pathological conditions.

[4] = test system: rat streptozotocin-induced diabetes model; assay: Nerve conduction velocity in rat streptozotocin-induced diabetes model; conditions: 10 mg/kg oral twice a day, days 14 to 28 after induction, vs vehicle group
Description: Streptozotocin (50 mg/kg, Sigma-Aldrich) was administered intravenously to SD rats (6 weeks old, male; CHARLES RIVER LABORATORIES JAPAN, INC.) via the tail vein, thereby preparing the streptozotocin-induced diabetes model. Streptozotocin was dissolved in a citrate buffer to prepare a 25 mg/mL solution, and then administered. A no pathological condition-induced animal was prepared by administering no streptozotocin solution. The day of initial administration was designated as day 1 after induction of pathological conditions.
On days 14 to 28 after induction of pathological conditions, a solution containing compound 1 (3 or 10 mg/kg) or a solvent thereof (water for injection) was orally administered to rats twice a day. […]
Nerve conduction velocity was measured within 3 days from the next day of the final administration. […] A-B stimulation and B-C stimulation were designated as distal stimulation and proximal stimulation, respectively, and then the transmission time of stimulation was analyzed on the basis of each lead-out waveform obtained from the electrode at the footpad. Nerve conduction velocity was calculated on the basis of a difference in transmission time between the distal stimulation and the proximal stimulation and the distance between the electrodes.

[5] = 20 mg/kg oral twice a day, day 17, n = 3

CN(C)C1CCN(C(=O)C[C@H](O)c2nccn2C)CC1 [Compound 1, (S)-1-(4-(dimethylamino)piperidin-1-yl)-3-hydroxy-3-(1-methyl-1H-imidazol-2-yl)propan-1-one]
50% response threshold in von Frey test (mechanical allodynia) [1]: significant increase in 50% response threshold | body weight loss ([2]; 20 mg/kg oral twice a day from day 10 after induction): no body weight loss was induced | clinical scores ([2]; 20 mg/kg oral twice a day from day 10 after induction, vs vehicle group): Increases in clinical scores were suppressed | number of animals with T cell infiltration, sciatic nerve [2, 5]: 1/3 | number of animals with T cell infiltration, tibial nerve [2, 5]: 0/3 | number of animals with axonal degeneration, sciatic nerve [2, 5]: 0/3 | number of animals with axonal degeneration, tibial nerve [2, 5]: 0/3 | number of animals with macrophage infiltration, sciatic nerve [2, 5]: 1/3 | number of animals with macrophage infiltration, tibial nerve [2, 5]: 0/3 | number of animals with myelin sheath degeneration, sciatic nerve [2, 5]: 0/3 | number of animals with myelin sheath degeneration, tibial nerve [2, 5]: 0/3 | 50% response threshold in von Frey test (mechanical allodynia) ([3]; 5 mg/kg oral single dose): Significant increases in 50% response threshold | 50% response threshold in von Frey test (mechanical allodynia) ([3]; 10 mg/kg oral single dose): Significant increases in 50% response threshold | nerve conduction velocity [4]: Significant increases in nerve conduction velocity
